Experimental data: paper PMC3856890 (Nature methods, 2013)

Target: T1, Pdp (pyrimidine-nucleoside phosphorylase) (Mycoplasmoides genitalium, UniProt P47297)
T1 sequence (P47297 1-421): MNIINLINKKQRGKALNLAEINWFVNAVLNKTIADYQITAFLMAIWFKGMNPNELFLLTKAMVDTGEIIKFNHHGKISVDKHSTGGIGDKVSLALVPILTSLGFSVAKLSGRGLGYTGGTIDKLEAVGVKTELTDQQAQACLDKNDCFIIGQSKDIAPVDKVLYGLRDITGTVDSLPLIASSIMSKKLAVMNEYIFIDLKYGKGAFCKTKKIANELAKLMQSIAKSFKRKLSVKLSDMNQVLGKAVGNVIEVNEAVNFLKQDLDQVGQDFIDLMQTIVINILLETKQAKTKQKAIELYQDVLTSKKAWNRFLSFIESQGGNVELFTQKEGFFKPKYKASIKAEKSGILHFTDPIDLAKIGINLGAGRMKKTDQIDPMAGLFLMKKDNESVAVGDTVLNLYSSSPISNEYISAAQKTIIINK
Assay: uracil production at […] nm after NaOH stop
Assay type: biochemical
Conditions: 1.25-12.5 mM deoxyuridine; 10 mM phosphate; 10 mM Tris pH 7.3; 1 mM EDTA; 37 C

uracil production at 290 nm after NaOH stop: We determined uracil production by A290.
Structure (SMILES): O=c1cc[nH]c(=O)[nH]1 [uracil]
